Source: the supplement of paper PMC10307832

What was measured:
Assay in all cases: relative viability (nuclei count vs DMSO), 5 days (fraction); higher = more cells survive
IPA-3 + Pictilisib = compound: C1=CC=C2C(=C1)C=CC(=C2SSC3=C(C=CC4=CC=CC=C43)O)O [IPA-3] + CS(=O)(=O)N1CCN(Cc2cc3nc(-c4cccc5[nH]ncc45)nc(N4CCOCC4)c3s2)CC1 [Pictilisib] (partner 1 µM)
Procedure, shortened: (§1)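 Five library-drug doses in √10 steps were combined with a fixed anchor-drug dose, or a single drug was given alone, by pin tool to lung cancer cell lines in 1536-well plates the day after seeding. Nuclei were stained and counted after 5 days. Relative viability is the nuclei count in treated wells over that in vehicle wells, taken as the median of duplicate plates.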

RAF265 + Trametinib = compound: Cn1c(Nc2ccc(C(F)(F)F)cc2)nc2cc(Oc3ccnc(-c4ncc(C(F)(F)F)[nH]4)c3)ccc21 [RAF265] + CC(=O)Nc1cccc(-n2c(=O)n(C3CC3)c(=O)c3c(Nc4ccc(I)cc4F)n(C)c(=O)c(C)c32)c1 [Trametinib] (partner 0.02 µM)
Procedure, shortened: as §1

RAF265 + Palbociclib = compound: Cn1c(Nc2ccc(C(F)(F)F)cc2)nc2cc(Oc3ccnc(-c4ncc(C(F)(F)F)[nH]4)c3)ccc21 [RAF265] + CC(=O)c1c(C)c2cnc(Nc3ccc(N4CCNCC4)cn3)nc2n(C2CCCC2)c1=O [Palbociclib] (partner 0.5 µM)
Procedure, shortened: as §1

RAF265 + AZD7762 = compound: Cn1c(Nc2ccc(C(F)(F)F)cc2)nc2cc(Oc3ccnc(-c4ncc(C(F)(F)F)[nH]4)c3)ccc21 [RAF265] + NC(=O)Nc1cc(-c2cccc(F)c2)sc1C(=O)N[C@H]1CCCNC1 [AZD7762] (partner 0.2 µM)
Procedure, shortened: as §1

Cell Line | relative viability (IPA-3 + Pictilisib; first compound 0.2 µM) | relative viability (IPA-3 + Pictilisib; first compound 0.6325 µM) | relative viability (IPA-3 + Pictilisib; first compound 2 µM) | relative viability (IPA-3 + Pictilisib; first compound 6.325 µM) | relative viability (IPA-3 + Pictilisib; first compound 20 µM) | relative viability (RAF265 + Trametinib; first compound 0.01 µM) | relative viability (RAF265 + Trametinib; first compound 0.03162 µM) | relative viability (RAF265 + Trametinib; first compound 0.1 µM) | relative viability (RAF265 + Trametinib; first compound 0.3162 µM) | relative viability (RAF265 + Trametinib; first compound 1 µM) | relative viability (RAF265 + Palbociclib; first compound 0.01 µM) | relative viability (RAF265 + Palbociclib; first compound 0.03162 µM) | relative viability (RAF265 + Palbociclib; first compound 0.1 µM) | relative viability (RAF265 + Palbociclib; first compound 0.3162 µM) | relative viability (RAF265 + Palbociclib; first compound 1 µM) | relative viability (RAF265 + AZD7762; first compound 0.01 µM) | relative viability (RAF265 + AZD7762; first compound 0.03162 µM) | relative viability (RAF265 + AZD7762; first compound 0.1 µM) | relative viability (RAF265 + AZD7762; first compound 0.3162 µM) | relative viability (RAF265 + AZD7762; first compound 1 µM)
HCC-366 | 0.161 | 0.152 | 0.0986 | 0.184 | 0.136 | 0.414 | 0.302 | 0.264 | 0.251 | 0.165 | 0.403 | 0.312 | 0.286 | 0.205 | 0.137 | 0.25 | 0.253 | 0.396 | 0.321 | 0.157
HCC-827 | 1.05 | 0.976 | 0.951 | 1.19 | 1.05 | 0.592 | 0.483 | 0.544 |  | 0.362 | 0.462 | 0.494 | 0.489 |  | 0.395 | 0.213 | 0.357 | 0.215 |  | 0.197
HOP-62 | 1.04 | 0.651 | 0.589 | 0.668 | 0.63 | 0.468 | 0.404 | 0.406 | 0.379 | 0.218 | 0.416 | 0.457 | 0.423 | 0.392 | 0.216 | 0.572 | 0.553 | 0.462 | 0.482 | 0.422
IA-LM | 0.397 | 0.246 | 0.349 | 0.315 | 0.442 |  |  |  |  |  |  |  |  |  |  |  |  |  |  | 
LC-2-ad | 0.461 | 0.627 | 0.502 | 0.443 | 0.43 | 0.931 | 0.958 | 1.01 | 0.839 | 0.432 | 0.488 | 0.499 | 0.55 | 0.58 | 0.29 | 0.848 | 0.933 | 0.914 | 0.721 | 0.669
NCI-H520 | 0.3 | 0.277 | 0.268 | 0.246 | 0.202 | 0.684 | 0.65 | 0.508 | 0.519 | 0.338 | 0.264 | 0.218 | 0.239 | 0.191 | 0.155 |  |  |  |  | 
NCI-H522 |  |  |  |  |  | 0.743 | 0.77 | 0.613 | 0.679 | 0.657 | 1.01 | 1.03 | 1.26 | 0.99 | 0.863 | 0.801 | 0.872 | 0.887 | 0.985 | 0.897
NCI-H596 | 0.41 | 0.412 | 0.409 | 0.401 | 0.45 | 0.836 | 0.75 | 0.813 | 0.826 | 0.638 |  |  |  |  |  | 1.29 | 1.08 | 1.03 | 0.877 | 0.548
NCI-H661 | 0.409 | 0.458 | 0.472 | 0.547 | 0.418 | 0.596 | 0.484 | 0.371 | 0.332 | 0.339 | 0.457 | 0.408 | 0.337 | 0.326 | 0.344 |  |  |  |  | 
NCI-H1299 | 0.905 | 0.858 | 0.834 | 0.654 | 0.687 |  |  |  |  |  |  |  |  |  |  |  |  |  |  | 
NCI-H1563 | 0.68 | 0.62 | 0.622 | 0.694 | 0.59 |  |  |  |  |  |  |  |  |  |  |  |  |  |  | 
NCI-H1648 |  |  |  |  |  | 0.534 | 0.455 | 0.535 | 0.387 | 0.29 | 0.287 | 0.283 | 0.266 | 0.26 | 0.242 | 0.698 | 0.514 | 0.804 | 0.758 | 0.567
NCI-H1650 | 0.811 | 0.391 | 0.569 | 0.551 | 0.736 | 0.786 | 0.708 | 0.568 | 0.419 | 0.43 | 0.385 | 0.319 | 0.418 | 0.278 | 0.277 |  |  |  |  | 
NCI-H1703 | 0.261 | 0.21 | 0.25 | 0.253 | 0.246 |  |  |  |  |  |  |  |  |  |  | 0.132 | 0.133 | 0.126 | 0.142 | 0.099
NCI-H2009 | 0.889 | 0.726 | 0.784 | 0.83 | 0.57 | 0.29 | 0.303 | 0.189 | 0.188 | 0.165 | 0.264 | 0.224 | 0.162 | 0.17 | 0.144 |  |  |  |  | 
NCI-H2023 | 0.275 | 0.243 | 0.248 | 0.301 | 0.258 | 0.608 | 0.508 | 0.533 | 0.55 | 0.266 | 0.411 | 0.34 | 0.37 | 0.291 | 0.268 |  |  |  |  | 
NCI-H2228 | 0.74 | 0.223 | 0.343 | 0.513 | 0.439 | 0.651 | 0.58 | 0.423 | 0.201 | 0.247 | 0.721 | 0.73 | 0.818 | 0.333 | 0.284 |  |  |  |  | 
NCI-H2342 |  |  |  |  |  | 0.75 | 0.715 | 0.786 | 0.698 | 0.682 | 0.582 | 0.547 | 0.558 | 0.468 | 0.474 | 0.507 | 0.558 | 0.539 | 0.498 | 0.474
SK-LU-1 | 0.617 | 0.612 | 0.579 | 0.712 | 0.645 | 0.559 | 0.419 | 0.393 | 0.274 | 0.257 | 0.399 | 0.342 | 0.33 | 0.318 | 0.251 |  |  |  |  | 
SK-MES-1 | 0.415 | 0.357 | 0.321 | 0.34 | 0.403 | 0.601 | 0.531 | 0.443 | 0.317 | 0.285 | 0.291 | 0.233 | 0.241 | 0.252 | 0.204 |  |  |  |  | 
SW 900 |  |  |  |  |  | 0.83 | 0.994 | 0.836 | 0.679 | 0.52 | 0.582 | 0.558 | 0.519 | 0.396 | 0.237 | 0.709 | 0.483 | 0.671 | 0.466 | 0.348
SW 1573 | 0.593 | 0.503 | 0.6 | 0.479 | 0.61 | 0.665 | 0.597 | 0.556 | 0.54 | 0.255 | 0.419 | 0.328 | 0.312 | 0.245 | 0.215 |  |  |  |  | 
